# System: high-fat diet model
# Assay: Anti-obesity action in high-fat diet model (body weight, fat weight)
# Type: in vivo, Mice (C57BL/6J)
# From the text: The effect of isoxanthohumol on body weight increase and fat accumulation associated with high-fat diet was studied by the following procedure. In the table, “Regular diet” is control diet “D12450J” (product name, Research Diets); “60 kcal % High-fat diet” is very high-fat diet “D12492” (product name, Research Diets); and “Catechins” is a preparation “Polyphenon 70A” (product name, Mitsui Norin Co., Ltd.). Xanthohumol and isoxanthohumol were the standard samples (purity of 95% or higher) obtained in Preparation Example 1. The “Dose” in the table indicates the dose (mg) of the test substance per day per kg body weight. The main evaluation items were the body weight and the fat weight (fat around epididymis, fat around kidney/posterior abdominal wall, and fat around mesentery) of each individual (each item was measured on the last day: day 55 of administration). Mice (C57BL/6J, male, 7 weeks of age, CLEA Japan, Inc.) were purchased, and they were quarantine and acclimatized for one week. […] The selected animals were divided into groups (n=8 in each group) in the group structure shown in Table 1 by the stratified continuous randomization method based on body weight at the end of the acclimatization period. They were fed with free access to specific basic feed and water. The test substance was orally administered once per day for eight weeks. The test substance was administered until day 55, with the dosing start date defined as day 0. The duration was regarded as an administration period. During the administration period, the feed was completely replaced with a frequency of twice a week. The volume of a dosing solution was 10 mL/kg, and the amount of the test substance and the volume of the solution were calculated based on the latest body weight on the administration date. After the administration period, adipose tissue (fat around epididymis, fat around kidney/posterior abdominal wall, fat around mesentery) was extracted, and the weight was measured. Statistical analysis was performed as follows. Specifically, the average and standard error were calculated for body weight and fat weight in each group. Statistical processing was performed using Microsoft Office Excel 2003, and significant difference was tested between the regular diet group and the high-fat diet group and between the high-fat diet group and the groups excluding the regular diet group. As a statistical method, the homogeneity of variance was tested using the F-test. Student's T-test was used for homoscedasticity, and Aspin-Welch t-test was used for heteroscedasticity.
# [1] = 60 mg/kg/day oral, day 55, compared to high-fat diet group
# [2] = 180 mg/kg/day oral, day 55, compared to high-fat diet group
smiles,measurement,setting,value
COc1cc(O)c(CC=C(C)C)c2c1C(=O)CC(c1ccc(O)cc1)O2 (stereo not drawn) [isoxanthohumol],fat weight around epididymis,[1],significantly low
same,fat weight around mesentery,[1],significantly low
same,fat weight around epididymis,[2],significantly low
same,fat weight around kidney/posterior abdominal wall,[2],significantly low
same,fat weight around mesentery,[2],significantly low
same,average body weight compared with xanthohumol medium-dose group,"isoxanthohumol 60 mg/kg vs xanthohumol 60 mg/kg, day 55",equivalent to that of the xanthohumol medium-dose group
same,average body weight compared with catechins group,"isoxanthohumol 180 mg/kg vs catechins 300 mg/kg, day 55",better result
same,body weight,"isoxanthohumol high-dose 180 mg/kg/day oral, day 55, compared to high-fat diet group",significantly low
same,body weight,"isoxanthohumol medium-dose 60 mg/kg/day oral, day 55, compared to high-fat diet group",tended to have a low body weight

# — US11066629B2, “Lipid metabolism-promoting composition including isoxanthohumol” (SUNTORY HOLDINGS LIMITED, priority 2016, dated 2021)
